Data reported in the supplement of paper PMC11451515.

Assays:
Conditions in all cases: 48 h
SEM cells [1] = experiment: AUC of viability dose-response curve (% viability x log10 dose units); higher = less sensitive
Procedure, shortened: (§1)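 Leukemia cells adapted to each medium were seeded in 1536-well plates (500 or 1000 cells/well) and given library compounds in DMSO for 48 h at 37°C. The 11 threefold doses spanned 47 μM to 0.79 nM, and CellTiter-Glo One luminescence was normalised per plate to DMSO and cell-free wells before four-parameter log-logistic fitting on log10 dose. Area under the curve was integrated with the trapezoidal rule, scaling curves above full viability and removing curves that failed quality control.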

P12-Ichikawa [2] = experiment: as above
Procedure, shortened: as §1

NOMO1 [3] = experiment: as above
Procedure, shortened: as §1

SEM cells [4] = experiment: cell viability relative to DMSO control; higher = less cytotoxic
Procedure, shortened: (§2)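 Viability was expressed as a per-plate percentage of DMSO wells, with cell-free wells as background. Leukemia cells (NOMO1 or SEM at 500 cells/well, P12-Ichikawa at 1000 cells/well) were adapted for at least four passages in each medium and seeded in 1536-well plates (5 μl). Library compounds in DMSO were pin-dosed over an 11-point threefold series from 47 μM to 0.79 nM, and CellTiter-Glo One luminescence was read after 48 h at 37°C.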

P12-Ichikawa [5] = experiment: as above
Procedure, shortened: as §2

NOMO1 [6] = experiment: as above
Procedure, shortened: as §2

COC1=CC=CC(=C1N)\C2=C\C(=O)C3=C(O2)C=CC=C3
AUC of viability dose-response curve
Conditions | NOMO1 [3] | P12-Ichikawa [2] | SEM cells [1]
HPLM + 10% dialyzed FBS | 464 | 469 | 432
RPMI 5 mM glucose + 10% FBS | 466 | 459 | 428
RPMI 5 mM glucose + 10% dialyzed FBS | 463 | 465 | 419

cell viability [%]
Conditions | NOMO1 [6] | P12-Ichikawa [5] | SEM cells [4]
HPLM + 10% dialyzed FBS, 0.000781 µM | – | 110 | 99.8
HPLM + 10% dialyzed FBS, 0.00234 µM | – | 122 | 123
HPLM + 10% dialyzed FBS, 0.00702 µM | – | 122 | 124
HPLM + 10% dialyzed FBS, 0.0211 µM | – | 133 | 130
HPLM + 10% dialyzed FBS, 0.0632 µM | – | 128 | 129
HPLM + 10% dialyzed FBS, 0.19 µM | – | 129 | 146
HPLM + 10% dialyzed FBS, 0.569 µM | – | 134 | 140
HPLM + 10% dialyzed FBS, 1.71 µM | – | 129 | 145
HPLM + 10% dialyzed FBS, 5.12 µM | – | 129 | 148
HPLM + 10% dialyzed FBS, 15.4 µM | – | 133 | 145
HPLM + 10% dialyzed FBS, 46.1 µM | – | 120 | 156
RPMI 5 mM glucose + 10% FBS, 0.000781 µM | 120 | – | 119
RPMI 5 mM glucose + 10% FBS, 0.00234 µM | 121 | – | 112
RPMI 5 mM glucose + 10% FBS, 0.00702 µM | 119 | – | 120
RPMI 5 mM glucose + 10% FBS, 0.0211 µM | 117 | – | 121
RPMI 5 mM glucose + 10% FBS, 0.0632 µM | 143 | – | 136
RPMI 5 mM glucose + 10% FBS, 0.19 µM | 125 | – | 136
RPMI 5 mM glucose + 10% FBS, 0.569 µM | 143 | – | 161
RPMI 5 mM glucose + 10% FBS, 1.71 µM | 124 | – | 143
RPMI 5 mM glucose + 10% FBS, 5.12 µM | 126 | – | 141
RPMI 5 mM glucose + 10% FBS, 15.4 µM | 121 | – | 177
RPMI 5 mM glucose + 10% FBS, 46.1 µM | 116 | – | 144
RPMI 5 mM glucose + 10% dialyzed FBS, 0.000781 µM | – | – | 106
RPMI 5 mM glucose + 10% dialyzed FBS, 0.00234 µM | – | – | 111
RPMI 5 mM glucose + 10% dialyzed FBS, 0.00702 µM | – | – | 134
RPMI 5 mM glucose + 10% dialyzed FBS, 0.0211 µM | – | – | 134
RPMI 5 mM glucose + 10% dialyzed FBS, 0.0632 µM | – | – | 128
RPMI 5 mM glucose + 10% dialyzed FBS, 0.19 µM | – | – | 136
RPMI 5 mM glucose + 10% dialyzed FBS, 0.569 µM | – | – | 145
RPMI 5 mM glucose + 10% dialyzed FBS, 1.71 µM | – | – | 164
RPMI 5 mM glucose + 10% dialyzed FBS, 5.12 µM | – | – | 149
RPMI 5 mM glucose + 10% dialyzed FBS, 15.4 µM | – | – | 160
RPMI 5 mM glucose + 10% dialyzed FBS, 46.1 µM | – | – | 155

Nc1cccc2c1CN([C@H]1CCC(=O)NC1=O)C2=O
AUC of viability dose-response curve
Conditions | NOMO1 [3] | P12-Ichikawa [2] | SEM cells [1]
HPLM + 10% dialyzed FBS | 462 | 451 | 427
RPMI 5 mM glucose + 10% FBS | 428 | 448 | 390
RPMI 5 mM glucose + 10% dialyzed FBS | 466 | 449 | 450

cell viability [%]
Conditions | NOMO1 [6] | P12-Ichikawa [5] | SEM cells [4]
HPLM + 10% dialyzed FBS, 0.000781 µM | – | 115 | 120
HPLM + 10% dialyzed FBS, 0.00234 µM | – | 112 | 131
HPLM + 10% dialyzed FBS, 0.00702 µM | – | 114 | 110
HPLM + 10% dialyzed FBS, 0.0211 µM | – | 117 | 121
HPLM + 10% dialyzed FBS, 0.0632 µM | – | 109 | 115
HPLM + 10% dialyzed FBS, 0.19 µM | – | 114 | 114
HPLM + 10% dialyzed FBS, 0.569 µM | – | 107 | 103
HPLM + 10% dialyzed FBS, 1.71 µM | – | 103 | 97.6
HPLM + 10% dialyzed FBS, 5.12 µM | – | 107 | 81.8
HPLM + 10% dialyzed FBS, 15.4 µM | – | 88.8 | 99.5
HPLM + 10% dialyzed FBS, 46.1 µM | – | 96.7 | 89.5
RPMI 5 mM glucose + 10% FBS, 0.000781 µM | 125 | 109 | –
RPMI 5 mM glucose + 10% FBS, 0.00234 µM | 118 | 124 | –
RPMI 5 mM glucose + 10% FBS, 0.00702 µM | 124 | 118 | –
RPMI 5 mM glucose + 10% FBS, 0.0211 µM | 123 | 118 | –
RPMI 5 mM glucose + 10% FBS, 0.0632 µM | 112 | 124 | –
RPMI 5 mM glucose + 10% FBS, 0.19 µM | 114 | 113 | –
RPMI 5 mM glucose + 10% FBS, 0.569 µM | 98.3 | 116 | –
RPMI 5 mM glucose + 10% FBS, 1.71 µM | 105 | 99.6 | –
RPMI 5 mM glucose + 10% FBS, 5.12 µM | 99.7 | 114 | –
RPMI 5 mM glucose + 10% FBS, 15.4 µM | 82.1 | 80.8 | –
RPMI 5 mM glucose + 10% FBS, 46.1 µM | 112 | 92.7 | –
RPMI 5 mM glucose + 10% dialyzed FBS, 0.000781 µM | 101 | 112 | 109
RPMI 5 mM glucose + 10% dialyzed FBS, 0.00234 µM | 111 | 114 | 108
RPMI 5 mM glucose + 10% dialyzed FBS, 0.00702 µM | 120 | 105 | 117
RPMI 5 mM glucose + 10% dialyzed FBS, 0.0211 µM | 104 | 107 | 111
RPMI 5 mM glucose + 10% dialyzed FBS, 0.0632 µM | 114 | 107 | 120
RPMI 5 mM glucose + 10% dialyzed FBS, 0.19 µM | 108 | 107 | 109
RPMI 5 mM glucose + 10% dialyzed FBS, 0.569 µM | 107 | 97.4 | 111
RPMI 5 mM glucose + 10% dialyzed FBS, 1.71 µM | 109 | 102 | 103
RPMI 5 mM glucose + 10% dialyzed FBS, 5.12 µM | 103 | 94.8 | 103
RPMI 5 mM glucose + 10% dialyzed FBS, 15.4 µM | 88.4 | 63.3 | 88.8
RPMI 5 mM glucose + 10% dialyzed FBS, 46.1 µM | 107 | 80.8 | 81.4
